Data: article PMC9019041, “Structural insights into the peptide selectivity and activation of human neuromedin U receptors” (Nature Communications, 2022)
Read-outs that look alike come from different tables or passages of the source. Where no end group is shown, it is not given here.

What was measured:
Format in all cases: cell-based
NMUR2 F291A = molecular target: T1, NMUR2 F291A (Homo sapiens, UniProt Q9GZQ4, F291A); assay: IP-One assay, NMUR2 F291A; conditions: mean ± S.E.M., three independent experiments (n=3), SEM, read-out: IP1 accumulation pEC50 ± S.E.M. (converted)
T1 construct: expressed in transfected cells; host or cells: AD293 cells
T1 sequence (Q9GZQ4 whole entry F291A): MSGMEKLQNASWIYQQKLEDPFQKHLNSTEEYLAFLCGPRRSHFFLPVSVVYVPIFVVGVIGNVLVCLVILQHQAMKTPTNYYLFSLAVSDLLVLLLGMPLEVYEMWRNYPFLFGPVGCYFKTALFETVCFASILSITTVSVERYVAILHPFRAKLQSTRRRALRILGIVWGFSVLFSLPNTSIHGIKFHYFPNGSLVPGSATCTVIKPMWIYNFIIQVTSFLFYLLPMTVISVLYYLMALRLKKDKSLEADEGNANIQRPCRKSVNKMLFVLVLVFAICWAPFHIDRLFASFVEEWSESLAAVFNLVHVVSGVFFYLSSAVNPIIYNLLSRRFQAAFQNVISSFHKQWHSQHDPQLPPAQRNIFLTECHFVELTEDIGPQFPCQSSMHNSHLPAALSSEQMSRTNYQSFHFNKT
Protocol: (§1) IP-One production was measured using the IP-One HTRF kit (Cisbio)[62]. Briefly, AD293 cells (Agilent) were grown to a density of 400,000–500,000 cells per mL and then infected with separate plasmids at a suitable concentration. The culture was collected by centrifugation 24 h after incubation at 37 °C in 5% CO2 with a Stimulation Buffer. The cell suspension was then dispensed in a white 384-well plate at a volume of 7 μl per well before adding 7 μl of ligands. The mixture was incubated for 1 h at 37 °C. IP-One-d2 and anti-IP-One Cryptate dissolved in Lysis Buffer (3 μl each) were subsequently added and incubated for 15-30 min at room temperature before measurement. Intracellular IP-One measurement was carried with the IP-One HTRF kit and EnVision multi-plate reader (PerkinElmer) according to the manufacturer’s instructions. Data were normalized to the baseline response of the ligand.
(§2) The significance was determined with two-side, one-way ANOVA with Tukey’s test, and ^*P < 0.05 was considered statistically significant.

NMUR2 F305A = molecular target: T2, NMUR2 F305A (Homo sapiens, UniProt Q9GZQ4, F305A); assay: IP-One assay, NMUR2 F305A; conditions: mean ± S.E.M., three independent experiments (n=3), SEM, read-out: IP1 accumulation pEC50 ± S.E.M. (converted)
T2 construct: expressed in transfected cells; host or cells: AD293 cells
T2 sequence (Q9GZQ4 whole entry F305A): as the sequence (Q9GZQ4 whole entry F291A) above, with A291F, F305A counted along it
Protocol: as §1, §2

NMUR2 N181A = molecular target: T3, NMUR2 N181A (Homo sapiens, UniProt Q9GZQ4, N181A); assay: IP-One assay, NMUR2 N181A; conditions: mean ± S.E.M., three independent experiments (n=3), SEM, read-out: IP1 accumulation pEC50 ± S.E.M. (converted)
T3 construct: expressed in transfected cells; host or cells: AD293 cells
T3 sequence (Q9GZQ4 whole entry N181A): as the sequence (Q9GZQ4 whole entry F291A) above, with N181A, A291F counted along it
Protocol: as §1, §2

NMUR2 Y213A = molecular target: T4, NMUR2 Y213A (Homo sapiens, UniProt Q9GZQ4, Y213A); assay: IP-One assay, NMUR2 Y213A; conditions: mean ± S.E.M., three independent experiments (n=3), SEM, read-out: IP1 accumulation pEC50 ± S.E.M. (converted)
T4 construct: expressed in transfected cells; host or cells: AD293 cells
T4 sequence (Q9GZQ4 whole entry Y213A): as the sequence (Q9GZQ4 whole entry F291A) above, with Y213A, A291F counted along it
Protocol: as §1, §2

NMUR2 Y52A = molecular target: T5, NMUR2 Y52A (Homo sapiens, UniProt Q9GZQ4, Y52A); assay: IP-One assay, NMUR2 Y52A; conditions: mean ± S.E.M., three independent experiments (n=3), SEM, read-out: IP1 accumulation pEC50 ± S.E.M. (converted)
T5 construct: expressed in transfected cells; host or cells: AD293 cells
T5 sequence (Q9GZQ4 whole entry Y52A): as the sequence (Q9GZQ4 whole entry F291A) above, with Y52A, A291F counted along it
Protocol: as §1, §2

NMUR1 H200A = molecular target: T6, NMUR1 H200A (Homo sapiens, UniProt Q9HB89, H200A); assay: IP-One assay, NMUR1 H200A; conditions: mean ± S.E.M., three independent experiments (n=3), SEM, read-out: IP1 accumulation pEC50 ± S.E.M. (converted)
T6 construct: The full-length human NMUR1 and NMUR2 were modified; expressed in transfected cells; host or cells: AD293 cells
T6 sequence (Q9HB89 whole entry H200A): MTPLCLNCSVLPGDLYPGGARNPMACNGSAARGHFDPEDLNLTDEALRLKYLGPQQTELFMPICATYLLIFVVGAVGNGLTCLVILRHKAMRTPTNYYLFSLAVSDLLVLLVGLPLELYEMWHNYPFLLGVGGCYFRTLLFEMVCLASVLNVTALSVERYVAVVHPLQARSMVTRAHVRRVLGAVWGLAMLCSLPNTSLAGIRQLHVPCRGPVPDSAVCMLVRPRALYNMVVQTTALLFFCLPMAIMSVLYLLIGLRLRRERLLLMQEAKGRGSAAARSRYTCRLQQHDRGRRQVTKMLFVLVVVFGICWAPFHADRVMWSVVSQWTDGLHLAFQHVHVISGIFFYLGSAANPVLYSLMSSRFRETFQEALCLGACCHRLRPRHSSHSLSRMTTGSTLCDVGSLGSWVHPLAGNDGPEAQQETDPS
Protocol: as §1, §2

NMUR2 N306A = molecular target: T7, NMUR2 N306A (Homo sapiens, UniProt Q9GZQ4, N306A); assay: IP-One assay, NMUR2 N306A; conditions: mean ± S.E.M., three independent experiments (n=3), SEM, read-out: IP1 accumulation pEC50 ± S.E.M. (converted)
T7 construct: expressed in transfected cells; host or cells: AD293 cells
T7 sequence (Q9GZQ4 whole entry N306A): as the sequence (Q9GZQ4 whole entry F291A) above, with A291F, N306A counted along it
Protocol: as §1, §2

NMUR2 R288A = molecular target: T8, NMUR2 R288A (Homo sapiens, UniProt Q9GZQ4, R288A); assay: IP-One assay, NMUR2 R288A; conditions: mean ± S.E.M., three independent experiments (n=3), SEM, read-out: IP1 accumulation pEC50 ± S.E.M. (converted)
T8 construct: expressed in transfected cells; host or cells: AD293 cells
T8 sequence (Q9GZQ4 whole entry R288A): as the sequence (Q9GZQ4 whole entry F291A) above, with R288A, A291F counted along it
Protocol: as §1, §2

NMUR2 F44A = molecular target: T9, NMUR2 F44A (Homo sapiens, UniProt Q9GZQ4, F44A); assay: IP-One assay, NMUR2 F44A; conditions: mean ± S.E.M., three independent experiments (n=3), SEM, read-out: IP1 accumulation pEC50 ± S.E.M. (converted)
T9 construct: The full-length human NMUR1 and NMUR2 were modified; expressed in transfected cells; host or cells: AD293 cells
T9 sequence (Q9GZQ4 whole entry F44A): as the sequence (Q9GZQ4 whole entry F291A) above, with F44A, A291F counted along it
Protocol: as §1, §2

NMUR2 V310A = molecular target: T10, NMUR2 V310A (Homo sapiens, UniProt Q9GZQ4, V310A); assay: IP-One assay, NMUR2 V310A; conditions: mean ± S.E.M., three independent experiments (n=3), SEM, read-out: IP1 accumulation pEC50 ± S.E.M. (converted)
T10 construct: expressed in transfected cells; host or cells: AD293 cells
T10 sequence (Q9GZQ4 whole entry V310A): as the sequence (Q9GZQ4 whole entry F291A) above, with A291F, V310A counted along it
Protocol: as §1, §2

NMUR1 F313A = molecular target: T11, NMUR1 F313A (Homo sapiens, UniProt Q9HB89, F313A); assay: IP-One assay, NMUR1 F313A; conditions: mean ± S.E.M., three independent experiments (n=3), SEM, read-out: IP1 accumulation pEC50 ± S.E.M. (converted)
T11 construct: The full-length human NMUR1 and NMUR2 were modified; expressed in transfected cells; host or cells: AD293 cells
T11 sequence (Q9HB89 whole entry F313A): as the sequence (Q9HB89 whole entry H200A) above, with A200H, F313A counted along it
Protocol: as §1, §2

NMUR2 WT = molecular target: T12, NMUR2 WT (Homo sapiens, UniProt Q9GZQ4); assay: IP-One assay, NMUR2 WT
T12 construct: The full-length human NMUR1 and NMUR2 were modified; expressed in transfected cells; host or cells: AD293 cells
T12 sequence (Q9GZQ4 whole entry): as the sequence (Q9GZQ4 whole entry F291A) above, with A291F counted along it
Protocol: as §1, §2

NMUR2 D287A = molecular target: T13, NMUR2 D287A (Homo sapiens, UniProt Q9GZQ4, D287A); assay: IP-One assay, NMUR2 D287A; conditions: mean ± S.E.M., three independent experiments (n=3), SEM, read-out: IP1 accumulation pEC50 ± S.E.M. (converted)
T13 construct: expressed in transfected cells; host or cells: AD293 cells
T13 sequence (Q9GZQ4 whole entry D287A): as the sequence (Q9GZQ4 whole entry F291A) above, with D287A, A291F counted along it
Protocol: as §1, §2

NMUR2 M106A = molecular target: T14, NMUR2 M106A (Homo sapiens, UniProt Q9GZQ4, M106A); assay: IP-One assay, NMUR2 M106A; conditions: mean ± S.E.M., three independent experiments (n=3), SEM, read-out: IP1 accumulation pEC50 ± S.E.M. (converted)
T14 construct: expressed in transfected cells; host or cells: AD293 cells
T14 sequence (Q9GZQ4 whole entry M106A): as the sequence (Q9GZQ4 whole entry F291A) above, with M106A, A291F counted along it
Protocol: as §1, §2

NMUR1 WT = molecular target: T15, NMUR1 WT (Homo sapiens, UniProt Q9HB89); assay: IP-One assay, NMUR1 WT
T15 construct: The full-length human NMUR1 and NMUR2 were modified; expressed in transfected cells; host or cells: AD293 cells
T15 sequence (Q9HB89 whole entry): as the sequence (Q9HB89 whole entry H200A) above, with A200H counted along it
Protocol: as §1, §2

NMUR2 E127A = molecular target: T16, NMUR2 E127A (Homo sapiens, UniProt Q9GZQ4, E127A); assay: IP-One assay, NMUR2 E127A; conditions: mean ± S.E.M., three independent experiments (n=3), SEM, read-out: IP1 accumulation pEC50 ± S.E.M. (converted)
T16 construct: expressed in transfected cells; host or cells: AD293 cells
T16 sequence (Q9GZQ4 whole entry E127A): as the sequence (Q9GZQ4 whole entry F291A) above, with E127A, A291F counted along it
Protocol: as §1, §2

NMUR2 N109A = molecular target: T17, NMUR2 N109A (Homo sapiens, UniProt Q9GZQ4, N109A); assay: IP-One assay, NMUR2 N109A; conditions: mean ± S.E.M., three independent experiments (n=3), SEM, read-out: IP1 accumulation pEC50 ± S.E.M. (converted)
T17 construct: expressed in transfected cells; host or cells: AD293 cells
T17 sequence (Q9GZQ4 whole entry N109A): as the sequence (Q9GZQ4 whole entry F291A) above, with N109A, A291F counted along it
Protocol: as §1, §2

NMUR1 F334A = molecular target: T18, NMUR1 F334A (Homo sapiens, UniProt Q9HB89, F334A); assay: IP-One assay, NMUR1 F334A; conditions: mean ± S.E.M., three independent experiments (n=3), SEM, read-out: IP1 accumulation pEC50 ± S.E.M. (converted)
T18 construct: The full-length human NMUR1 and NMUR2 were modified; expressed in transfected cells; host or cells: AD293 cells
T18 sequence (Q9HB89 whole entry F334A): as the sequence (Q9HB89 whole entry H200A) above, with A200H, F334A counted along it
Protocol: as §1, §2

NMUR2 H309A = molecular target: T19, NMUR2 H309A (Homo sapiens, UniProt Q9GZQ4, H309A); assay: IP-One assay, NMUR2 H309A; conditions: mean ± S.E.M., three independent experiments (n=3), SEM, read-out: IP1 accumulation pEC50 ± S.E.M. (converted)
T19 construct: expressed in transfected cells; host or cells: AD293 cells
T19 sequence (Q9GZQ4 whole entry H309A): as the sequence (Q9GZQ4 whole entry F291A) above, with A291F, H309A counted along it
Protocol: as §1, §2

NMUR2 Y110A = molecular target: T20, NMUR2 Y110A (Homo sapiens, UniProt Q9GZQ4, Y110A); assay: IP-One assay, NMUR2 Y110A; conditions: mean ± S.E.M., three independent experiments (n=3), SEM, read-out: IP1 accumulation pEC50 ± S.E.M. (converted)
T20 construct: expressed in transfected cells; host or cells: AD293 cells
T20 sequence (Q9GZQ4 whole entry Y110A): as the sequence (Q9GZQ4 whole entry F291A) above, with Y110A, A291F counted along it
Protocol: as §1, §2

NMUR1 N124A = molecular target: T21, NMUR1 N124A (Homo sapiens, UniProt Q9HB89, N124A); assay: IP-One assay, NMUR1 N124A; conditions: mean ± S.E.M., three independent experiments (n=3), SEM, read-out: IP1 accumulation pEC50 ± S.E.M. (converted)
T21 construct: The full-length human NMUR1 and NMUR2 were modified; expressed in transfected cells; host or cells: AD293 cells
T21 sequence (Q9HB89 whole entry N124A): as the sequence (Q9HB89 whole entry H200A) above, with N124A, A200H counted along it
Protocol: as §1, §2

NMUR1 E142A = molecular target: T22, NMUR1 E142A (Homo sapiens, UniProt Q9HB89, E142A); assay: IP-One assay, NMUR1 E142A; conditions: mean ± S.E.M., three independent experiments (n=3), SEM, read-out: IP1 accumulation pEC50 ± S.E.M. (converted)
T22 construct: The full-length human NMUR1 and NMUR2 were modified; expressed in transfected cells; host or cells: AD293 cells
T22 sequence (Q9HB89 whole entry E142A): as the sequence (Q9HB89 whole entry H200A) above, with E142A, A200H counted along it
Protocol: as §1, §2

NMUR2 T205A = molecular target: T23, NMUR2 T205A (Homo sapiens, UniProt Q9GZQ4, T205A); assay: IP-One assay, NMUR2 T205A; conditions: mean ± S.E.M., three independent experiments (n=3), SEM, read-out: IP1 accumulation pEC50 ± S.E.M. (converted)
T23 construct: expressed in transfected cells; host or cells: AD293 cells
T23 sequence (Q9GZQ4 whole entry T205A): as the sequence (Q9GZQ4 whole entry F291A) above, with T205A, A291F counted along it
Protocol: as §1, §2

EC50 (NMUR2 F291A): 4.68 nM
EC50 (NMUR2 F305A): 12.3 nM
EC50 (NMUR2 N181A): 2.75 nM
EC50 (NMUR2 Y213A): 7.24 nM
EC50 (NMUR2 Y52A): 1 nM
EC50 (NMUR1 H200A): 41.7 nM
EC50 (NMUR2 N306A): 10 nM
EC50 (NMUR2 R288A): 33.1 nM
EC50 (NMUR2 F44A): 102 nM
EC50 (NMUR2 V310A): 0.631 nM
EC50 (NMUR1 F313A): 209 nM
EC50 (NMUR2 WT; NMUR2 WT, mean ± S.E.M., three independent experiments (n=3), SEM, read-out: IP1 accumulation pEC50 ± S.E.M. (converted)): 0.631 nM
EC50 (NMUR2 WT; WT NMUR2, Supplementary Fig. 1, three independent experiments, read-out: pEC50 of NMU (converted)): 3.02 nM
EC50 (NMUR2 D287A): 1.15 nM
EC50 (NMUR2 M106A): 19.5 nM
EC50 (NMUR1 WT; NMUR1 WT, mean ± S.E.M., three independent experiments (n=3), SEM, read-out: IP1 accumulation pEC50 ± S.E.M. (converted)): 3.55 nM
EC50 (NMUR1 WT; wild-type (WT) NMUR1, Supplementary Fig. 1, three independent experiments, read-out: pEC50 of NMU (converted)): 4.47 nM
EC50 (NMUR2 E127A): 43.7 nM
EC50 (NMUR2 N109A): 7.24 nM
EC50 (NMUR1 F334A): 85.1 nM
EC50 (NMUR2 H309A): 0.646 nM
EC50 (NMUR2 Y110A): 186 nM
EC50 (NMUR1 N124A): 6.92 nM
EC50 (NMUR1 E142A): 47.9 nM
EC50 (NMUR2 T205A): 1.95 nM
Substance: FRVDEEFQSPFASQSRGYFLFRPRN-NH2 [NMU, neuromedin U]
